Measured values reported in ChEMBL document CHEMBL1150535, “Acyclic NK-1 antagonists: 2-benzhydryl-2-aminoethyl ethers” (Bioorg Med Chem Lett, 1994).
pIC50: −log10 of the molar value.

Biological target: Voltage-gated L-type calcium channel (Homo sapiens, UniProt Q13936+Q13698+Q01668+O60840)
Test: Antagonistic activity at L-type calcium channel by displacement of [3H]diltiazem and enhanced [3H]nitrendipine binding
Assay type: protein assay

| SMILES | IC50 [µM] |
| --- | --- |
| Cc1cc(C)cc(COCC(NCC(N)=O)C(c2ccccc2)c2ccccc2)c1 (stereo not given) | 5.5 |
| NC(=O)CN[C@H](COCc1cc(C(F)(F)F)cc(C(F)(F)F)c1)C(c1ccccc1)c1ccccc1 | 1.67 |
| Cc1cc(C)cc(COC[C@H](C(c2ccccc2)c2ccccc2)N(C)C)c1 | 0.98 |
| COc1ccccc1CN[C@H]1C2CCN(CC2)[C@H]1C(c1ccccc1)c1ccccc1 [CP-96345] | 0.24 |

Biological target: Substance-P receptor (Homo sapiens, UniProt P25103)
Test: Binding affinity towards human Tachykinin receptor 1 expressed in CHO cells by the displacement of [125 I] substance P
Assay type: cell-based

Substance-P receptor, sequence (P25103 whole entry): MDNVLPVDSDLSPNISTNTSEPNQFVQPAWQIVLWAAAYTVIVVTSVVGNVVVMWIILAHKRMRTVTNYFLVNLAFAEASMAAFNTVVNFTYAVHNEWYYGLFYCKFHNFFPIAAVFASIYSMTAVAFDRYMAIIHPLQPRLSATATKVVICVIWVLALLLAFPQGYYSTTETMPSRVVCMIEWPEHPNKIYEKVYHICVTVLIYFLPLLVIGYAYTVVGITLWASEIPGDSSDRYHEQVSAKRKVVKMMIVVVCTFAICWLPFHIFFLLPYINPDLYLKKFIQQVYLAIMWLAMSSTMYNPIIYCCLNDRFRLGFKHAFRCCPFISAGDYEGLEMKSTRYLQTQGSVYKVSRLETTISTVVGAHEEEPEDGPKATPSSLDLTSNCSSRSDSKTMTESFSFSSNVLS

| SMILES | pIC50 |
| --- | --- |
| NC(COCc1cccc(Cl)c1)C(c1ccccc1)c1ccccc1 (stereo not given) | 7.12 |
| NC(=O)CNC(COCc1cc(C(F)(F)F)cc(C(F)(F)F)c1)C(c1ccccc1)c1ccccc1 (stereo not given) | 9.07 |
| NC(COCc1cc(Br)cc(Br)c1)C(c1ccccc1)c1ccccc1 (stereo not given) | 7.88 |
| Cc1cc(C)cc(COCC(NCC2CC2)C(c2ccccc2)c2ccccc2)c1 (stereo not given) | 7.03 |
| Cc1cc(C)cc(COCC(NCc2ccccc2)C(c2ccccc2)c2ccccc2)c1 (stereo not given) | 7.09 |
| Cc1cc(C)cc(COC[C@@H](C(c2ccccc2)c2ccccc2)N(C)C)c1 | 7.85 |
| Cc1cc(C)cc(COCC(NCC(N)=O)C(c2ccccc2)c2ccccc2)c1 (stereo not given) | 8.66 |
| CNC(COCc1cc(C)cc(C)c1)C(c1ccccc1)c1ccccc1 (stereo not given) | 8.17 |
| NC(COCc1cccc(I)c1)C(c1ccccc1)c1ccccc1 (stereo not given) | 7.11 |
| Cc1ccc(C)c(COCC(N)C(c2ccccc2)c2ccccc2)c1 (stereo not given) | 6.82 |
| Cc1cc(C)cc(COCC(NC(C)C)C(c2ccccc2)c2ccccc2)c1 (stereo not given) | 7.26 |
| Cc1cc(C)cc(COCC(C(c2ccccc2)c2ccccc2)N(C)C)c1 (stereo not given) | 8.36 |
| NC(=O)CN[C@H](COCc1cc(C(F)(F)F)cc(C(F)(F)F)c1)C(c1ccccc1)c1ccccc1 | 9.28 |
| NC(COCc1ccccc1)C(c1ccccc1)c1ccccc1 (stereo not given) | 6.44 |
| Cc1cc(Br)cc(COCC(N)C(c2ccccc2)c2ccccc2)c1 (stereo not given) | 8.01 |
| Cc1cc(C)cc(COC[C@H](C(c2ccccc2)c2ccccc2)N(C)C)c1 | 8.26 |
| Cc1cc(C)cc(COCC(NC=O)C(c2ccccc2)c2ccccc2)c1 (stereo not given) | 7.96 |
| Cc1cc(C)cc(COCC(O)C(c2ccccc2)c2ccccc2)c1 (stereo not given) | 7.77 |
| CCNC(COCc1cc(C)cc(C)c1)C(c1ccccc1)c1ccccc1 (stereo not given) | 7.90 |
| CC(=O)NC(COCc1cc(C)cc(C)c1)C(c1ccccc1)c1ccccc1 (stereo not given) | 7.68 |
| NC(COCc1cc(Cl)cc(Cl)c1)C(c1ccccc1)c1ccccc1 (stereo not given) | 7.95 |
